Patent US7112602B2, “Methods of treating undesired angiogenesis with 2-methyl-EM-138” (The Children's Medical Center Corporation, priority 1998, dated 2006)
Marks after values point to notes of the source that are not given here.

Assays:
B16-BL6 melanoma cells [1] = assay: B16-BL6 melanoma pulmonary metastasis model, intraperitoneal treatment; format: in vivo, C57B1/6 mice; conditions: for T/C (ratio of lung metastases of treated vs. control animals) / IC50 (50% inhibition of surface metastasis) / Mean Number of Pulmonary Metastases / % Inhibition / angiogenesis inhibitory activity (comparison in words): i.p.; for T/C (ratio of lung metastases of treated vs. control animals): 0.4 mmol/kg in 2.8% DMSO; for T/C (ratio of lung metastases of treated vs. control animals) / % Inhibition: from 72 hours after tumor cells, day 14; for IC50 (50% inhibition of surface metastasis): varying doses, average of three experiments, 7-R-(+) tested once at each dose, up to 0.8 mmol/kg; for Mean Number of Pulmonary Metastases / % Inhibition: 1.0 ml of 5.0 mg/ml in 2.8% DMSO; for Mean Number of Pulmonary Metastases: four times a day from 72 hours after tumor cells, surface lung metastases counted day 14; for % Inhibition: versus DMSO control, p < 0.01; for anti-tumor activity (summary in words): summary of Tables 1 and 2, at the tested doses; for angiogenesis inhibitory activity (comparison in words): B16-BL6 metastasis studies
Method: B16-BL6 melanoma cells (5×10^4) were injected intravenously into the tail veins of C57B1/6 mice. The mice were given intraperitoneal (i.p.) treatments of either 1.0 ml 2.8% DMSO alone (control), 1.0 ml (5.0 mg/ml 2.8% DMSO) 2-phthalimidinoglutaric acid (EM-138) in DMSO, or 1.0 ml (5.0 mg/ml 2.8%) 2-methyl-2-phthalimidinoglutaric acid (2-Me-EM-138) in DMSO four times a day beginning 72 hours after injection of the tumor cells. Fourteen days after tumor cell inoculation, the lungs were removed from the mice and the surface pulmonary metastases were counted.
B16-BL6 melanoma cells (5×10^4) were injected intravenously into the tail veins of C57B1/6 mice. The mice were given intraperitoneal (i.p.) treatments of either 1.0 ml 2.8% DMSO alone (control), 1.0 ml (5.0 mg/ml) DL-2-methyl-2-phthalimidinoglutaric acid (racemate) in 2.8% DMSO, 1.0 ml (5.0 mg/ml) (R)-(+)-2-methyl-2-phthalimidinoglutaric acid (JS-2-13-P1) in 2.8% DMSO, or (S)-(−)-2-methyl-2-phthalimidinoglutaric acid (JS-2-13-P2) in 2.8% DMSO four times a day beginning 72 hours after injection of the tumor cells. Fourteen days after tumor cell inoculation, the lungs were removed from the mice and the surface pulmonary metastases were counted.
B16-BL6 melanoma cells (5×10^4) were injected intravenously into the tail veins of C57B1/6 mice. The mice were given intraperitoneal (i.p.) treatments of one of the following solutions four times a day beginning 72 hours after injection of the tumor cells. [drawing 4] • 1.0 ml of thalidomide in 2.8% DMSO • 1.0 ml of 3′-hydroxy-2-phthalimidinoglutaric acid in 2.8% DMSO (compound 5a) • 1.0 ml of 4′-hydroxy-2-phthalimidinoglutaric acid in 2.8% DMSO (compound 5b) • 1.0 ml of 2-phthalimidinoglutaric acid (EM-138) in 2.8% DMSO (compound 5c) • 1.0 ml of DL-2-methyl-2-phthalimidinoglutaric acid (racemate) in 2.8% DMSO (compound 7) • 1.0 ml of (R)-(+)-2-methyl-2-phthalimidinoglutaric acid (JS-2-13-P1) in 2.8% DMSO (compound 7-R-(+)) • 1.0 ml of (S)-(−)-2-methyl-2-phthalimidinoglutaric acid (JS-2-13-P2) in 2.8% DMSO (compound 7-S-(−))
A dose of 0.4 mmol/kg was used for each compound tested. Fourteen days after tumor cell inoculation, the lungs were removed from the mice and the surface pulmonary metastases were counted.
This experiment was repeated at varying doses. The in the following table represent the average values for three of the experiment.

B16-BL6 melanoma cells [2] = assay: B16-BL6 melanoma pulmonary metastasis model, oral (gavage) treatment; format: in vivo, C57B1/6 mice
Method: B16-BL6 melanoma cells (5×10^4) were injected intravenously into the tail veins of C57B1/6 mice. Three days later, the mice received a gavage treatment with 0.8 mmol/kg of 2-phthalimidinoglutaric acid (EM-138). The mice received either a single treatment, five treatments on alternate days, or one treatment every day for eleven days. Fourteen days after tumor cell inoculation, the lungs were removed from the mice and the surface pulmonary metastases were counted. The values shown are the mean of 5 mice per group. The bars on the graph represent the standard deviation.
B16-BL6 melanoma cells (5×10^4) were injected intravenously into the tail veins of C57B1/6 mice. The mice were given a single oral treatment of 2-phthalimidinoglutaric acid (EM-138) of 0.8 mmol/kg. The treatment was initiated one day prior to tumor cells or on day 1, 2, 3, 5, or 7 after tumor cells. Fourteen days after tumor cell inoculation, the lungs were removed from the mice and the surface pulmonary metastases were counted. The values shown are the mean of 5 mice per group. The bars on the graph represent the standard deviation.

Resistance to hydrolysis = format: physicochemical; conditions: compared with thalidomide
[3] = Racemization of enantiomers; format: physicochemical
[4] = tested on: vascular endothelial cell proliferation; conditions: endothelial versus tumor cell proliferation in vitro; cited from earlier work

SMILES	T/C (ratio of lung metastases of treated vs. control animals) (B16-BL6 melanoma cells [1])	IC50 (50% inhibition of surface metastasis) (B16-BL6 melanoma cells [1])	anti-tumor activity (summary in words) (B16-BL6 melanoma cells [1])	further results
O=C1CCC(N2C(=O)c3ccccc3C2=O)C(=O)N1 (centres unmarked) [Thalidomide, thalidomide, reference compound]	0.9	3.2^a mmol/kg		
O=C(O)CCC(C(=O)O)N1Cc2ccccc2C1=O (centres unmarked) [Compound 5c, 2-phthalimidinoglutaric acid]	0.2	0.2^a mmol/kg	considerably greater inhibitory activity than thalidomide	Mean Number of Pulmonary Metastases (B16-BL6 melanoma cells [1]): 85; % Inhibition (B16-BL6 melanoma cells [1]): 60%; inhibition of metastasis (B16-BL6 melanoma cells [2]; dose of 0.8 mmol/kg/day): greater than 90%; inhibition of metastasis (B16-BL6 melanoma cells [2]; single dose): 50%; resistance to hydrolysis (Resistance to hydrolysis): relatively resistant to hydrolysis; racemization of enantiomers [3]: readily racemize
C[C@](CCC(=O)O)(C(=O)O)N1Cc2ccccc2C1=O [7-S-(−), (S)-(−)-2-methyl-2-phthalimidinoglutaric acid]	0.15	0.1^a mmol/kg		angiogenesis inhibitory activity (comparison in words) (B16-BL6 melanoma cells [1]): greater angiogenesis inhibitory activity than does the (R) isomer
O=C(O)CCC(C(=O)O)N1Cc2c(O)cccc2C1=O (centres unmarked) [Compound 5b, 4′-hydroxy-2-phthalimidinoglutaric acid]	0.9			
CO[C@@H]1[C@H](OC(=O)NC(=O)CCl)CC[C@]2(CO2)[C@H]1[C@@]1(C)O[C@@H]1CC=C(C)C [AGM-1470]				half-maximal inhibition of endothelial cell proliferation at lower concentration than tumor cell proliferation [4]: 4 logs
CC(CCC(=O)O)(C(=O)O)N1Cc2ccccc2C1=O (racemic) [Compound 7, DL-2-methyl-2-phthalimidinoglutaric acid]	0.25	0.2^a mmol/kg	considerably greater inhibitory activity than thalidomide	angiogenesis inhibitory activity (comparison in words) (B16-BL6 melanoma cells [1]): as potent an inhibitor of angiogenesis as EM-138; Mean Number of Pulmonary Metastases (B16-BL6 melanoma cells [1]): 84; % Inhibition (B16-BL6 melanoma cells [1]): 60%
C[C@@](CCC(=O)O)(C(=O)O)N1Cc2ccccc2C1=O [7-R-(+), (R)-(+)-2-methyl-2-phthalimidinoglutaric acid]	0.7	No activity^b	little or no activity	
O=C(O)CCC(C(=O)O)N1C(=O)c2ccccc2C1O (centres unmarked) [Compound 5a, 3′-hydroxy-2-phthalimidinoglutaric acid]	0.95			
